Here are results for 2 molecules from patent US10350206B2, “Benzyl substituted indazoles as BUB1 inhibitors” (Bayer Pharma Aktiengesellschaft, priority 2014, dated 2019).

In test [1] the target is T1, catalytic domain of human Bub1 (amino acids 704-1085) (Homo sapiens, UniProt O43683).
T1 construct: catalytic domain of human Bub1 (amino acids 704-1085); His6 (N); made in house; host or cells: Hi5 insect cells
Briefly: Equilibrium probe competition assay (TR-FRET kinase binding assay). The note with it: read-out: Assay 5 IC50. How it is done:
The half-life of prodrugs (Table 3) poses a challenge for the verification of their biological activity. The Bub1 enzymatic activity assay (as per Biological Assay 1.0 infra) requires a minimum reaction time of 60 minutes in order to be able to assess the inhibitory activity of the compounds. During this time typically 20% to 60% of the prodrugs have been already converted to their corresponding drugs at the pH of 7.5 at which the assay is performed. Ideally one would perform the biological assay at a pH at which the prodrug is stable (e.g. pH 4). […] Alternatively, an assay requiring shorter incubation times would better estimate the binding affinities of the prodrugs. […] Extrapolating the stability data from Tables 3 and 4, one would expect at this time point most of the compound present in the test solution to be the prodrug.
FIGS. 1 and 2 combine the results from Biological Assay 5 with those from Biological Assay 6. The binding affinities over time of drug and prodrug pairs are shown as pIC50 together with the prodrug stability, and the pIC50 to be expected if only the drug present in the sample was responsible for the activity in the assay. Extrapolating the pIC50 from these graphs to time 0 (at which 100% of prodrug is present in the sample), the actual affinity of the drug and prodrug can be inferred. Secondly, looking at the differences between expected and real pIC50 an estimate can be made about the contribution of the prodrug to the observed activity.
Biological Assay 5.0: Equilibrium Probe Competition Assay:
Bub1 binding affinity of compounds described in the present invention were quantified using a time-resolved fluorescence energy transfer (TR-FRET) kinase binding assay which measures displacement of the synthetic fluorescent probe 5-[({2-[2-({2-[1-(4-ethoxy-2,6-difluorobenzyl)-1H-indazol-3-yl]-4-(pyridin-4-ylamino)pyrimidin-5-yl}oxy)ethoxy]ethyl}carbamothioyl)amino]-2-(6-hydroxy-3-oxo-3H-xanthen-9-yl)benzoic acid (6-5-1) by the (recombinant) catalytic domain of human Bub1 (amino acids 704-1085). The enzyme was expressed in Hi5 insect cells with N-terminal 6×His/AviTag® sequences, purified by affinity- (Ni-NTA) and size exclusion chromatography and site-specific biotinylated ex-vivo using a commercially available kit (Avidity).
In a typical assay 11 different concentrations of each compound (0.1 nM, 0.33 nM, 1.1 nM, 3.8 nM, 13 nM, 44 nM, 0.15 μM, 0.51 μM, 1.7 μM, 5.9 μM and 20 μM) were tested in duplicate within the same microtiter plate. To this end, 100-fold concentrated compound solutions (in DMSO) were made by serial dilution (1:3.4) of freshly prepared 2 mM stocks in a clear low volume 384-well source microtiter plate (Greiner Bio-One, Frickenhausen, Germany), from which 50 nl of compounds were transferred into a black low volume test microtiter plate from the same supplier. Subsequently 2 μL of a solution containing biotinylated Bub1 (the final concentration of Bub1 was adjusted depending on the activity of the enzyme lot in order to be within the linear dynamic range of the assay: typically ˜[…] were used) and 1 nM Streptavidin Terbium Cryptate (Cisbio, No. 610SATLB) in aqueous assay buffer [50 mM Tris/HCl pH 7.5, 200 mM potassium chloride (KCl), 1.0 mM dithiothreitol (DTT), 0.1 mM sodium ortho-vanadate, 1% (v/v) glycerol, 0.01% (w/v) bovine serum albumine (BSA), 0.005% (v/v) Triton X-100 (Sigma), were added to the compounds in the test plate and the mixture was incubated for 15 min at 22° C. to allow pre-equilibration of the putative enzyme-inhibitor complexes before the start of the probe competition reaction, which was initiated by the addition of 3 μL 1.67-fold concentrated solution (in assay buffer) of 6-5-1 (final concentration: 1.5 nM). The resulting mixture (5 μL final volume) was incubated at 22° C. during 0, 15, 30, 60, 120, 240 and 1440 min. […]
(In general: In TR-FRET formats the signal depends on donor and acceptor labels being close together.)

The test system of test [2] is HeLa human cervical tumor cells. In words: Proliferation assay (HeLa cell line). To be noted: 96 h, 4 days incubation, crystal violet, read-out: Biological Assay 2: Proliferation assay (HeLa cell line) median IC50. It counts as cell-based.

Read-outs that look alike come from different tables or passages of the source.

With `COc1cnc(-c2nn(Cc3c(F)cc(OCCO)cc3F)c3ccccc23)nc1Nc1ccnc(C)c1` [Example 2-1-2, 2-{3,5-difluoro-4-[(3-{5-methoxy-4-[(2-methylpyridin-4-yl)amino]pyrimidin-2-yl}-1H-indazol-1-yl)methyl]phenoxy}ethanol], the IC50 was 1.6 nM in test [1] (Time 15 min); 3.5 nM in test [1] (Time 30 min); 2.2 nM in test [1] (Time 60 min); 3.2 nM in test [1] (Time 90 min); 2.9 nM in test [1] (Time 120 min); 4 nM in test [1] (Time 240 min). Also, the IC50 amounted to 2.4 nM in test [1] (Time 1440 min) and 1300 nM in test [2].

In the case of `COc1cnccc1Nc1nc(-c2nn(Cc3c(F)cc(OCCO)cc3F)c3ccccc23)ncc1OC` [Example 2-1-3, 2-{3,5-difluoro-4-[(3-{5-methoxy-4-[(3-methoxypyridin-4-yl)amino]pyrimidin-2-yl}-1H-indazol-1-yl)methyl]phenoxy}ethanol], the IC50 in test [1] (Time 15 min) is 1.7 nM; in test [1] (Time 30 min), 1.3 nM; in test [1] (Time 60 min) it was 0.9 nM; in test [1] (Time 90 min), 0.54 nM; in test [1] (Time 120 min), 0.49 nM; in test [1] (Time 240 min) it was 0.31 nM. Also, the values for the IC50 in test [1] (Time 1440 min) and in test [2] were 0.2 nM and 1700 nM, respectively.
